Read-outs that look alike come from different tables or passages of the source.
Target: T1, PARK7 (Homo sapiens, UniProt Q99497)
T1 sequence (Q99497 1-189): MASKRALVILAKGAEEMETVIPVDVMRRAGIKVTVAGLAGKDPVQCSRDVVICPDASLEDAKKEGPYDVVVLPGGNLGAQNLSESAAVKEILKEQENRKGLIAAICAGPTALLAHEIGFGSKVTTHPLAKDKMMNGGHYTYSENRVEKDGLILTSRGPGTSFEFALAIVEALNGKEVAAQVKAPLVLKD
Test: High-throughput screen of the crude compound library, PARK7 fluorescence polarization (FP) assay with FP reagent JYQ-107
Format: biochemical
Details: 1.25 µM, crude compound library, read-out: HTS FP assay %Inhibition (1.25 µM)
Text: Therefore, taking JYQ-88 as a starting point, we conducted an optimization to further improve the molecule in terms of inhibitory potency, specificity, and cellular uptake. […] First, a small tailored library was designed and synthesized to investigate whether the introduction of larger, hydrophilic substituents on JYQ-88 would enhance the interaction with the PARK7 pocket. […] The second approach involved the generation of a compound library containing diverse substituents at the azidomethyl position. […] We next performed a high-throughput screen of this crude compound library using our in-house developed PARK7 fluorescence polarization (FP) assay.[15]

Row | SMILES | inhibition at 1.25 µM (FP reagent JYQ-107) [%] | inhibition at 1.25 µM [%]
1 | N#CN1CC[C@@H](C(=O)Nc2nc3c(s2)CN(C(=O)C2CCN(C(=O)CCOc4ccccc4)CC2)CC3)C1 [compound 113] |  | 68.7
2 | N#CN1CC[C@@H](C(=O)Nc2nc3c(s2)CN(C(=O)c2ccc(N4CCCS4(=O)=O)cc2)CC3)C1 [compound 253] |  | 85.9
3 | Cc1cc(C(=O)N2CCc3nc(NC(=O)[C@@H]4CCN(C#N)C4)sc3C2)c(C)n1C1CC1 [compound 155] |  | 47.7
4 | N#CN1CC[C@@H](C(=O)Nc2nc3c(s2)CN(C(=O)c2ccc(Cn4cncn4)cc2)CC3)C1 [compound 159] |  | 80.2
5 | N#CN1CC[C@@H](C(=O)Nc2nc3c(s2)CN(C(=O)c2csc(-c4ccccn4)n2)CC3)C1 [compound 106] |  | 85.1
6 | CCn1cc(S(=O)(=O)N2CCC(C(=O)N3CCc4nc(NC(=O)[C@@H]5CCN(C#N)C5)sc4C3)CC2)cn1 [compound 38] |  | 69
7 | CN(Cc1ccnn1C)C(=O)C1CCCCC1C(=O)N1CCc2nc(NC(=O)[C@@H]3CCN(C#N)C3)sc2C1 (stereo partly drawn) [compound 193] |  | 73
8 | CN(Cc1ccccc1)S(=O)(=O)c1ccc(C(=O)N2CCc3nc(NC(=O)[C@@H]4CCN(C#N)C4)sc3C2)cc1 [compound 183] |  | 65.5
9 | N#CN1CC[C@@H](C(=O)Nc2nc3c(s2)CN(C(=O)c2cn(CC4CCCO4)nn2)CC3)C1 (stereo partly drawn) [compound 186] |  | 83.8
10 | Cn1nc(C(=O)N2CCOCC2)cc1C(=O)N1CCc2nc(NC(=O)[C@@H]3CCN(C#N)C3)sc2C1 [compound 134] |  | 87.6
11 | N#CN1CC[C@@H](C(=O)Nc2nc3c(s2)CN(C(=O)c2ccc(-c4cccs4)[nH]c2=O)CC3)C1 [compound 200] |  | 72.4
12 | CN1CCN(C(=O)C2CC=CCC2C(=O)N2CCc3nc(NC(=O)[C@@H]4CCN(C#N)C4)sc3C2)CC1 (stereo partly drawn) [compound 97] |  | 72.8
13 | N#CN1CC[C@@H](C(=O)Nc2nc3c(s2)CN(C(=O)c2cccc(N4CCOCC4)n2)CC3)C1 [compound 277] |  | 64.6
14 | N#CN1CC[C@@H](C(=O)Nc2nc3c(s2)CN(C(=O)c2csc(-c4ncccn4)n2)CC3)C1 [compound 27] |  | 80.8
15 | N#CN1CC[C@@H](C(=O)Nc2nc3c(s2)CN(C(=O)[C@@H]2CCO[C@H]2c2ccccc2)CC3)C1 [compound 39] |  | 63.3
16 | N#CN1CC[C@@H](C(=O)Nc2nc3c(s2)CN(C(=O)c2cnn(Cn4cc(Cl)cn4)c2)CC3)C1 [compound 237] |  | 80
17 | N#CN1CC[C@@H](C(=O)Nc2nc3c(s2)CN(C(=O)c2cnn(-c4ccncc4)c2)CC3)C1 [compound 41] |  | 66.3
18 | N#CN1CC[C@@H](C(=O)Nc2nc3c(s2)CN(C(=O)c2cccc(OCCOc4ccccc4Cl)n2)CC3)C1 [compound 225] |  | 86.9
19 | N#CN1CC[C@@H](C(=O)Nc2nc3c(s2)CN(C(=O)c2ccc(-n4ccnc4)nn2)CC3)C1 [compound 92] |  | 64.4
20 | N#CN1CC[C@@H](C(=O)Nc2nc3c(s2)CN(C(=O)C2CCN(S(=O)(=O)N4CCCCC4)CC2)CC3)C1 [compound 282] |  | 72.8
21 | N#CN1CC[C@@H](C(=O)Nc2nc3c(s2)CN(C(=O)c2cnc(-c4ccco4)s2)CC3)C1 [compound 104] |  | 62.8
22 | N#CN1CC[C@@H](C(=O)Nc2nc3c(s2)CN(C(=O)C2(CC(=O)N4CCOCC4)CCCC2)CC3)C1 [compound 249] |  | 73.8
23 | Cc1nc(-c2cccnc2)sc1C(=O)N1CCc2nc(NC(=O)[C@@H]3CCN(C#N)C3)sc2C1 [compound 128] |  | 76.5
24 | COc1ccc(C(=O)N2CCc3nc(NC(=O)[C@@H]4CCN(C#N)C4)sc3C2)cc1S(=O)(=O)NCCc1ccccn1 [compound 175] |  | 78.6
25 | COc1ccc(OCc2cc(C)on2)c(C(=O)N2CCc3nc(NC(=O)[C@@H]4CCN(C#N)C4)sc3C2)c1 [compound 116] |  | 81.9
26 | Cc1noc(C)c1Cc1ccc(C(=O)N2CCc3nc(NC(=O)[C@@H]4CCN(C#N)C4)sc3C2)o1 [compound 95] |  | 81.3
27 | N#CN1CC[C@@H](C(=O)Nc2nc3c(s2)CN(C(=O)c2ncoc2-c2ccco2)CC3)C1 [compound 62] |  | 78.9
28 | N#CN1CC[C@@H](C(=O)Nc2nc3c(s2)CN(C(=O)C2CC(OCc4ccccc4)C2)CC3)C1 (stereo partly drawn) [compound 35] |  | 78.9

Now from value to compound:

Row | inhibition at 1.25 µM (FP reagent JYQ-107) [%] | inhibition at 1.25 µM [%] | SMILES
29 | 81.3 |  | CCCCNc1ccc(C(=O)N2CCc3nc(NC(=O)[C@@H]4CCN(C#N)C4)sc3C2)cc1 [compound 434]
30 |  | 79.8 | N#CN1CC[C@@H](C(=O)Nc2nc3c(s2)CN(C(=O)CC2CCN(c4ccc(C(F)(F)F)cn4)CC2)CC3)C1 [compound 291]
31 | 78.4 |  | N#CN1CC[C@@H](C(=O)Nc2nc3c(s2)CN(C(=O)c2ccc4c(c2)OCO4)CC3)C1 [compound 470]
32 | 87.5 |  | Cc1cccc(COc2cccc(C(=O)N3CCc4nc(NC(=O)[C@@H]5CCN(C#N)C5)sc4C3)c2)c1 [compound 383]
33 |  | 85.3 | N#CN1CC[C@@H](C(=O)Nc2nc3c(s2)CN(C(=O)c2sccc2-n2cccc2)CC3)C1 [compound 310]
34 | 81.8 |  | N#CN1CC[C@@H](C(=O)Nc2nc3c(s2)CN(C(=O)CC2C(=O)Nc4ccccc42)CC3)C1 (stereo partly drawn) [compound 465]
35 | 72.2 |  | Cn1cc(-c2nc(C(=O)N3CCc4nc(NC(=O)[C@@H]5CCN(C#N)C5)sc4C3)cs2)cn1 [compound 360]
36 |  | 72 | Cc1ccc(C=CS(=O)(=O)N2CCC(C(=O)N3CCc4nc(NC(=O)[C@@H]5CCN(C#N)C5)sc4C3)CC2)cc1 [compound 344]
37 |  | 79.7 | Cn1nccc1[C@@H]1C[C@H]1C(=O)N1CCc2nc(NC(=O)[C@@H]3CCN(C#N)C3)sc2C1 [compound 328]
38 | 73.3 |  | CNc1ccc(C(=O)N2CCc3nc(NC(=O)[C@@H]4CCN(C#N)C4)sc3C2)cc1 [compound 439]
39 | 72 |  | CNS(=O)(=O)c1ccc(-c2ccccc2OC(F)(F)F)c(C(=O)N2CCc3nc(NC(=O)[C@@H]4CCN(C#N)C4)sc3C2)c1 [compound 352]
40 | 76.8 |  | N#CN1CC[C@@H](C(=O)Nc2nc3c(s2)CN(C(=O)c2ccc(C=O)cc2)CC3)C1 [compound 424]
41 | 87 |  | CC(C)c1cc(C(=O)N2CCc3nc(NC(=O)[C@@H]4CCN(C#N)C4)sc3C2)n(-c2ccccc2)n1 [compound 378]
42 |  | 81.9 | N#CN1CC[C@@H](C(=O)Nc2nc3c(s2)CN(C(=O)c2cccc(C(=O)N4CCCC4)n2)CC3)C1 [compound 286]
43 | 81 |  | Cc1c(Br)cccc1C(=O)N1CCc2nc(NC(=O)[C@@H]3CCN(C#N)C3)sc2C1 [compound 418]
44 | 76.2 |  | N#CN1CC[C@@H](C(=O)Nc2nc3c(s2)CN(C(=O)C2CCCCN2S(=O)(=O)c2ccc(Br)s2)CC3)C1 (stereo partly drawn) [compound 377]
45 | 65.2 |  | CC(C)(C)OC(=O)Nc1ccccc1C(=O)N1CCc2nc(NC(=O)[C@@H]3CCN(C#N)C3)sc2C1 [compound 396]
46 | 52.8 |  | N#CN1CC[C@@H](C(=O)Nc2nc3c(s2)CN(C(=O)c2cc(-c4cccc(Cl)c4)no2)CC3)C1 [compound 453]
47 | 71.7 |  | N#CN1CC[C@@H](C(=O)Nc2nc3c(s2)CN(C(=O)C2CCN(C(=O)N4CCOCC4)CC2)CC3)C1 [compound 362]
48 |  | 85.7 | Cc1ccc(Oc2ccc(C(=O)N3CCc4nc(NC(=O)[C@@H]5CCN(C#N)C5)sc4C3)nc2)cc1 [compound 316]
